This is an account of results in paper PMC5923171, “Novel Zinc-Attenuating Compounds as Potent Broad-Spectrum Antifungal Agents with In Vitro and In Vivo Efficacy” (Antimicrobial Agents and Chemotherapy, 2018).

Structures are written as SMILES. Values after ≈ are worked out from the molar mass of the structure shown. Marks after values point to notes of the source that are not given here.

The test system of data set [1] is Candida albicans SC5314. Description: In vivo fungal kidney burden candidiasis model. Details: species or system BALB/c mice. The note with it: for Mean log CFU/kidney / Mean log CFU/kidney reduction: 60 mg/kg i.p. twice a day; for Mean log CFU/kidney reduction: vs untreated control; for adverse effects following dosing: 60 mg/kg i.p., mice. On the procedure:
A murine model of systemic candidiasis was established according to a previously described method ([44]). BALB/c mice were infected with a 0.1-ml inoculum (1 × 10^5 to 5 × 10^5 CFU) of Candida albicans SC5314 cells by the intravenous route on day 0. Compounds were tested at doses of 60 mg/kg. Administration of compound was initiated 24 h prior (day −1) to infection (day 0) by the intraperitoneal route, dosing twice a day for 4 days (day −1 to day 2). ZAC307 was also evaluated with administration of the compounds given after the infection at day 0 (no pretreatment) and following dosing twice a day for 3 days (days 0 to 2). Fluconazole was used as a comparator drug. Six mice were used for each group, and the untreated control group was exposed to the vehicle alone. ZAC989 and ZAC307 were formulated by taking 60 mg of compound and adding this to 2 ml and 4 ml of 0.1 N NaOH, respectively. After mixing and sonication of the resulting solutions, 4 ml of purified water was added. The pH was adjusted to 9.0 with 0.1 N HCl solution, followed by the addition of 90 mg of NaCl. The solutions were then diluted to 10 ml and filtered through a 0.22-μm polyvinylidene difluoride (PVDF) filter. Sample collection and processing were performed as follows. Twelve hours after the last dose, all treated and untreated animals were sacrificed by cervical dislocation and kidneys were collected in 3 ml of sterile normal saline. The samples were homogenized, serially diluted, and plated on Sabouraud dextrose agar (SDA). SDA plates were incubated for 24 to 48 h at 35°C, and CFU were enumerated and reported as log CFU/kidney. The endpoint was mean log CFU of fungi in kidneys of treated animals compared to that of untreated animals. The study was conducted in conformance with an application submitted to the Committee for the Purpose of Control and Supervision of Experiments on Animals (CPCSEA), New Delhi, India, after approval from the Institutional Animal Ethics Committee (IAEC).

Data set [2] concerns C. glabrata Cg003. Description: Antifungal susceptibility testing (MIC). Format: cell-based, Candida glabrata. The note with it: Nakaseomyces glabratus, CG003, 24 h. The procedure:
(§1) Antifungal susceptibility testing was carried out as described previously ([38], [39]), with a few modifications. Briefly, for each yeast or mold growth inhibition assay, frozen stocks of yeast cells or spores were diluted to a final concentration of 0.5 × 10^5 to 2.5 × 10^5 CFU/ml in sterile water. ZAC989, ZAC307, and ZAC623 were dissolved in DMSO to 10 mM stocks from which half-log serial dilutions were prepared. Growth assays were subsequently performed by pipetting 3 μl of compound dissolved in DMSO (giving a final concentration of 1.5% DMSO), 100 μl of cell-spore suspension, and 97 μl of 2× RPMI medium (20.8 g/liter of RPMI 1640 medium, 69.06 g/liter of morpholinepropanesulfonic acid [MOPS], 36 g/liter of glucose) into a microtiter plate that was incubated for 24 h (yeasts) or 48 to 72 h (molds) at 34°C. Fungal growth was determined spectrophotometrically by optical density reading of each well at a wavelength of 492 nm on a Victor X5 (Perkin-Elmer) plate reader. […] Standard errors between repeated experiments were generally below 5%. The growth effect of exogenous addition of various divalent metals was evaluated by performing the antifungal susceptibility assay in the presence of 5 μM ZAC989 or ZAC307 and with increasing concentrations (0.003 to 50 μM) of ZnSO4, CuSO4, (NH4)2Fe(SO4)2, MgCl2, and CaCl2.

Data set [3] has as its system C. glabrata ATCC 90030. Description: Antifungal susceptibility testing (MIC). Format: cell-based, Candida glabrata. As to conditions: Nakaseomyces glabratus, ATCC90030; at least 50% growth inhibition, RPMI, 24 h, 34°C. The procedure:
as §1

A short description of data set [4]: Potentiometric titration, ligand-Zn(II) complex formation. The class given is binding. The note with it: DMSO-water (70:30, vol/vol), 0.5 eq of Zn^2+. The procedure: The Zn^2+-binding properties of ZAC307 and ZAC989 were further evaluated using a potentiometric assay, where pH is measured as a function of base (NaOH) added to the compound in either the absence or presence of metal. […] To determine the deprotonation constant, a solution of 1 mM ZAC307 or ZAC989 was titrated with 0.3 M NaOH at constant ionic strength (Fig. 2A and B). In a second run, the same titration was performed in the presence of 0.5 eq of Zn^2+ for ZAC307 and ZAC989. A shift in the pH curve in the presence of the metal (ZAC307, 0.5 eq of Zn^2+ [Fig. 2A]) compared to the absence of the metal (ZAC307 [Fig. 2A]) indicates binding of Zn^2+ to the compound. The measured pH data were analyzed with the Hyperquad program suite, taking into account all relevant equilibrium constants, including also the constants for metal hydroxylation. The analysis provides the pKa values and metal complex stability constants, as well as ligand-metal complex speciation calculation, indicating how many ZAC molecules are involved in coordinating the Zn^2+ ion at different pH values. […] ZAC989 bound copper with the formation constants log β1, log β2, and log β3 of 7.83, 13.37, and 20.62, respectively. The most dominant ZAC989-copper stoichiometry was a 3:1 stoichiometry (Fig. 2E).
Potentiometric measurements were carried out in DMSO-water (70:30, vol/vol) at 25°C as described previously ([22]). Titrations were performed with a pH meter (Denver Instruments) utilizing a glass electrode with AgCl reference filled with 3.0 M KCl. The electrode was equilibrated in DMSO-water (70:30, vol/vol) for at least 1 h before use. All experiments were performed at a constant ionic strength (0.1 M NaClO4). Three milliliters of a solution containing 1 mM compound was titrated with 0.3 M NaOH by manual additions in 1- to 5-μl increments with magnetic stirring. The metal-ligand binding constants were obtained from titrations of the metal complex solutions prepared in a 1:2 metal-to-ligand ratio. The titration data were refined by the nonlinear least-squares refinement program Hyperquad2013 ([37]) to determine the deprotonation and stability constants.

On to `CN(C)c1cc(-n2nc(-c3ccccc3)cc2O)ncn1` [ZAC307, 2-[6-(dimethylamino)pyrimidin-4-yl]-5-phenyl-pyrazol-3-ol], for which, in data set [1] (day −1 to day 2 (pretreatment)), the “Mean log CFU/kidney” value was 4.73 ± 0.19 log CFU/kidney and the “Mean log CFU/kidney reduction” value came to 1.06 log CFU/kidney. Moreover, in data set [1] (days 0 to 2, no pretreatment), the “Mean log CFU/kidney” value came to 4.77 ± 0.19 log CFU/kidney and the “Mean log CFU/kidney reduction” value is reported as 1.03* log CFU/kidney. Moreover, in data set [1], the “adverse effects following dosing” value is listed as “no adverse effects”. For the same compound, the MIC – broadly, the lowest concentration found to suppress growth – in data set [2] was found to be 0.2 mg/L (≈ 0.711 µM). Further, in data set [3], the MIC was 0.2 mg/L (≈ 0.711 µM). For the same compound, in data set [4], the “formation constant log β1 (1:1 ligand-Zn(II) complex)” value turned out to be 7.47, the “formation constant log β2 (2:1 ligand-Zn(II) complex)” value turned out to be 13.27 and the “formation constant log β3 (3:1 ligand-Zn(II) complex)” value is recorded as 18.14.
For `Cc1cc(O)n(-c2cc(N3CC[C@H](Oc4cnccc4C#N)C3)ncn2)n1` [ZAC989, 3-[(3S)-1-[6-(5-hydroxy-3-methyl-pyrazol-1-yl)pyrimidin-4-yl]pyrrolidin-3-yl]oxy-pyridine-4-carbonitrile], in data set [1] (day −1 to day 2 (pretreatment)), the “Mean log CFU/kidney” value was 4.09 ± 0.31 log CFU/kidney and the “Mean log CFU/kidney reduction” value was 1.71 log CFU/kidney. Besides, the “adverse effects following dosing” value in data set [1] is “lethargy lasting for 5 to 15 min after dosing”. The compound also displayed an MIC in data set [2] of 0.6 mg/L (≈ 1.65 µM). In data set [3], this compound had an MIC of 0.9 mg/L (≈ 2.48 µM). Also, in data set [4], the “formation constant log β1 (1:1 ligand-Zn(II) complex)” value is 7.35, the “formation constant log β2 (2:1 ligand-Zn(II) complex)” value amounted to 14.30 and the “formation constant log β3 (3:1 ligand-Zn(II) complex)” value stood at 19.71.
